Test results: ChEMBL document CHEMBL1148113, “New cytotoxic monotetrahydrofuran annonaceous acetogenins from Annona muricata” (J Nat Prod, 2002)
In brackets after ≈: the same amount, converted by molar mass.

Columns and labels:
[1] = tested on: HepG2; experiment: Cytotoxicity against human HepG2 cells after 3 days; assay type: functional, cell-based; details: HepG2, 72 h
[2] = Cytotoxicity against human HepG2(2.2.15) cells after 3 days; assay type: functional, cell-based; details: HepG2 2.2.15, 72 h

| SMILES | IC50 [1] | IC50 [2] |
| --- | --- | --- |
| CCCCC/C=C\CC[C@H](O)[C@@H](O)CCCC[C@@H](O)[C@H]1CC[C@H](CCCCCCCCCCCCC2=C[C@H](C)OC2=O)O1 [MURICIN I] | 0.0509 µg/mL (≈ 0.0839 µM) | 0.222 µg/mL (≈ 0.366 µM) |
| CCCCCCCCCCCC[C@@H](O)[C@H]1CC[C@@H]([C@@H](O)CCCCC(=O)CCCCCCCC2=C[C@H](C)OC2=O)O1 [COROSSOLONE] | 0.165 µg/mL (≈ 0.285 µM) | 0.0476 µg/mL (≈ 0.0822 µM) |
| CCCCCCC[C@H](O)[C@@H](O)CCCC[C@@H](O)[C@H]1CC[C@H](CCCCCCCCCCCCC2=C[C@H](C)OC2=O)O1 [MURICIN H] | 0.0951 µg/mL (≈ 0.164 µM) | 0.0118 µg/mL (≈ 0.0203 µM) |
| CCCCCCCCCCCC[C@@H](O)[C@H]1CC[C@@H]([C@@H](O)CCCCCCC(O)CCCCC[C@@H](O)CC2=C[C@H](C)OC2=O)O1 (stereo partly drawn) | 0.298 µg/mL (≈ 0.477 µM) | 0.0162 µg/mL (≈ 0.0259 µM) |
| CCCCCC(O)C(O)CCCCCC[C@H](O)[C@@H]1CC[C@H](CCCCCCCCCC[C@H](O)CC2=C[C@H](C)OC2=O)O1 (stereo partly drawn) [MURICIN B] | 1.78 µg/mL (≈ 2.98 µM) | 0.00429 µg/mL (≈ 0.00719 µM) |
| CCC[C@H](O)[C@@H](O)CCCCCCCC[C@@H](O)[C@H]1CC[C@H](CCCCCCCCCC[C@@H](O)CC2=C[C@H](C)OC2=O)O1 [ANNOCATALIN] | 5.7 µg/mL (≈ 9.55 µM) | 0.00348 µg/mL (≈ 0.00583 µM) |
| CCCCCC(O)C(O)CCCCCC[C@@H](O)[C@H]1CC[C@H](CCCCCCCCCC[C@@H](O)CC2=C[C@H](C)OC2=O)O1 (stereo partly drawn) [MURICIN A] | 5.04 µg/mL (≈ 8.44 µM) | 0.00513 µg/mL (≈ 0.00859 µM) |
| COc1cccc2c1C(=O)c1c(O)c3c(c(O)c1C2=O)C[C@@](O)(C(=O)CO)C[C@@H]3O[C@H]1C[C@H](N)[C@H](O)[C@H](C)O1 [DOXORUBICIN] | 0.241 µg/mL (≈ 0.443 µM) | 0.45 µg/mL (≈ 0.828 µM) |
| CCCCCCCC(O)C(O)CC[C@H](O)[C@@H]1CC[C@H](CCCCCCCCCCCC[C@@H](O)CC2=C[C@H](C)OC2=O)O1 (stereo partly drawn) [MURICIN C] | 0.499 µg/mL (≈ 0.836 µM) | 0.00387 µg/mL (≈ 0.00648 µM) |
